Laboratory results taken from patent publication US12509444B2, “Compounds and methods for CD73 modulation and indications therefor” (Plexxikon Inc., priority 2019, dated 2025).

Experiments:
[1] = biological target: T1, Human CD73 (amino acid residues 27-549) (Homo sapiens, UniProt P21589); assay: CD73 enzymatic assay (luciferase-based indirect assay, CellTiter-Glo); type: biochemical; conditions: 0.4 nM CD73, 150 μM AMP, 1 hour at room temperature
T1 construct: Human CD73 (amino acid residues 27-549); His tag (N); made in house; host or cells: E. coli
T1 sequence (P21589 27-549): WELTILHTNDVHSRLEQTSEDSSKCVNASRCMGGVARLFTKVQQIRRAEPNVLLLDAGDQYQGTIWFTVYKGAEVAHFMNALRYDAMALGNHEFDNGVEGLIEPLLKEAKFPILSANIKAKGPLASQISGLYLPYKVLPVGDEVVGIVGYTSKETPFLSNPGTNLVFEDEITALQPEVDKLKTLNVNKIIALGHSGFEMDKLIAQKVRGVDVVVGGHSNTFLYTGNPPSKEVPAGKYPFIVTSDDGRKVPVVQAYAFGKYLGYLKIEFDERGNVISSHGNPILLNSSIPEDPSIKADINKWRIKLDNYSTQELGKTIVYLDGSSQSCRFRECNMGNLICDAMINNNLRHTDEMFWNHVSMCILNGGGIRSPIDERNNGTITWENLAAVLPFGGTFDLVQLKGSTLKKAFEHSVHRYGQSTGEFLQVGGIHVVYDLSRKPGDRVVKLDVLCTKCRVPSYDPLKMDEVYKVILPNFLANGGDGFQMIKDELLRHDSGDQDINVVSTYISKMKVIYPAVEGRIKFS
In short: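 Residual AMP inhibits luciferase, so luminescence reports CD73 turnover; read with CellTiter-Glo 2.0 plus 1 μM final ATP, 30 min. Reaction used 0.4 nM N-His CD73 (27-549, E. coli), 150 μM AMP, HEPES pH 7.4 with Tween 20, 1 h at room temperature. IC50 fitted by nonlinear regression.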

human CD73 = biological target: T2, human CD73 (Homo sapiens, UniProt P21589); assay: Inhibitor activity against CD73 in cell based assay (CD73 expressing CHO-K1 cells); conditions: CHO-K1 cells expressing human CD73, 150 μM AMP, 4 hours of incubation; read-out: CHO-K1 CELL VARIANT: CD73 IC50
T2 construct: expressed in transfected cells
T2 sequence (P21589 27-549): T1 sequence (P21589 27-549)
In short: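 Residual supernatant AMP was quantified via CellTiter-Glo luminescence (1 μM ATP added, 30 min, room temperature) after a 4 h exposure of human CD73-expressing CHO-K1 cells to 150 μM AMP plus compound, top final 10 μM, 8 points. IC50 came from nonlinear regression of percent inhibition.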

IC50 [1] [µM]	IC50 (human CD73) [µM]	Compound
0.001 to 10	0.001 to 10	O=C(N[C@H]1CCCC(F)(F)C1)O[C@@H]1CCN(c2cnn(CCO)c(=O)c2Cl)C1 [P-0514, (R)-1-(5-chloro-1-(2-hydroxyethyl)-6-oxo-1,6-dihydropyridazin-4-yl)pyrrolidin-3-yl ((S)-3,3-difluorocyclohexyl)carbamate]
0.001 to 10	0.001 to 10	N#CC1(NC(=O)O[C@@H]2CCN(c3cn[nH]c(=O)c3Cl)C2)CCC1 [P-0515, (R)-1-(5-chloro-6-oxo-1,6-dihydropyridazin-4-yl)pyrrolidin-3-yl (1-cyanocyclobutyl)carbamate]
0.001 to 10	0.001 to 10	O=C(NC1CCC1)O[C@@H]1CCN(c2cn[nH]c(=O)c2Cl)C1 [P-0516, (R)-1-(5-chloro-6-oxo-1,6-dihydropyridazin-4-yl)pyrrolidin-3-yl cyclobutylcarbamate]
0.001 to 10	0.001 to 10	CC1(C)C(NC(=O)O[C@@H]2CCN(c3cn[nH]c(=O)c3Cl)C2)C1(C)C [P-0517, (R)-1-(5-chloro-6-oxo-1,6-dihydropyridazin-4-yl)pyrrolidin-3-yl (2,2,3,3-tetramethylcyclopropyl) carbamate]
0.001 to 10	0.001 to 10	O=C(NC1(C(F)(F)F)CCC1)O[C@@H]1CCN(c2cn[nH]c(=O)c2Cl)C1 [P-0518, (R)-1-(5-chloro-6-oxo-1,6-dihydropyridazin-4-yl)pyrrolidin-3-yl (1-(trifluoromethyl)cyclobutyl) carbamate]
